Test results from US9283209B2, “Oral formulations of deferasirox” (NOVARTIS AG, priority 2013, dated 2016).
Converted amounts (≈) assume the structure as drawn. Where two headings read alike, the source gives them in different places.

How the values were obtained:
[1] = tested on: serum creatinine, creatinine clearance; details: human, in vivo
Description: In addition, a new analysis of creatinine and creatinine clearance changes was performed to explore whether deferasirox-associated renal changes are a function of peak exposure (Cmax) or of overall exposure (AUC). The analysis used data from the large multicenter study 7, in which Ctrough (a proxy of AUC) and deferasirox C2h (a proxy of Cmax) was collected at multiple time points.
Based on study 7 data, the relationship between PK parameters at steady state (Ctrough and C2h) and serum creatinine was investigated by using a linear mixed model of log-transformed creatinine values (1990 observations at week 12 and 28) with patient included in model as a random effect. After log-transformation, baseline creatinine levels, C2h and Ctrough were included as predictors in the model.

[2] = Randomized crossover bioequivalence study, Exjade dispersed in fruit juice or water; assay type: in vivo, human; details: single 20 mg/kg dose, 28 healthy volunteers, 2.5 to 5 hours after intake
Source text: (§1) Deferasirox Cmax values in healthy volunteers are generally higher than in patients. Two healthy volunteer studies in the initial registration package in 2005 were therefore reviewed for potential Cmax-related adverse events.

[3] = Exjade (deferasirox) solubility profile at 37 C; assay type: physicochemical
Source text: Due to the poor solubility of Exjade™ (deferasirox), a high dose is required to achieve the desired therapeutic effect, which results in unwanted side effects, such as gastrointestinal (GI) irritation and kidney toxicity. […] To meet the high dose requirement and reduce pill burden Exjade™ (deferasirox) was developed as dispersible tablets with about 29.4% drug load. The disadvantage of this type of formulation is that the tablets have to be dispersed in water or appropriate liquid, such as in orange juice or apple juice and stirred until a fine suspension is obtained prior to administration. Further, the dispersible tablets have to be taken at least 30 minutes before food.

[4] = Study 2209: one year study in NTDT patients, GI adverse event rates; assay type: in vivo, human; details: 10 mg/kg
Source text: The new Exjade formulations represent a significant improvement in patient care and support compliance with chelation therapy because of the improved pharmaceutical properties and because of the changes in composition. […] Exjade currently also contains lactose and so is not recommended in patients with rare hereditary problems of galactose intolerance, the Lapp lactase deficiency, glucose-galactose malabsorption or severe lactase deficiency. Novartis believes the exclusion of lactose and sodium lauryl sulfate in the new formulations will improve the gastrointestinal tolerability of the product.

[5] = tested on: QT interval; assay: Thorough QT healthy volunteer study; assay type: in vivo, human
Description: (§2) Therefore, patients would only be exposed to the highest approved dose (40 mg/kg/day for the current formulation) after an extended period of up-titration with confirmed tolerability • the absence of a significant food effect results in a lower risk of increased exposure when the drug is taken with a meal.
as §1

[6] = Thorough QT healthy volunteer study; assay type: in vivo, human; details: human, in vivo, oral, 40 mg/kg, 40 mg/kg immediately after a high-fat breakfast, 44 healthy volunteers
Description: as §2, §1

[7] = Patient study A0105F: Exjade after high-fat breakfast; assay type: in vivo, human; details: patients
Description: as §2

[8] = 40 mg/kg after high-fat breakfast, 44 volunteers

SMILES: O=C(O)c1ccc(-n2nc(-c3ccccc3O)nc2-c2ccccc2O)cc1 [deferasirox]
- Estimate, Log (C2h) [1]: 0.03287
- Estimate, Log (Ctrough) [1]: 0.06504
- Estimate, Log (baseline creatinine) [1]: 0.9593
- Estimate, Log(C2h) [1]: −0.00203
- Estimate, Log(Ctrough) [1]: 0.9346
- Estimate, Log(baseline creatinine clearance) [1]: −10.3474
- OR for a 2-fold increase in PK parameter, Log(C2h) [1]: 0.999
- OR for a 2-fold increase in PK parameter, Log(Ctrough) [1]: 1.911
- OR for a 30% increase in PK parameter, Log(Ctrough) [1]: 1.278
- Slope of linear regression between Day 1 C2h and percent change in serum creatinine at week 4 [1]: 0.03 (−0.01, 0.08)
- HV subjects reporting loose stools [2]: three
- solubility ([3]; aqueous buffer, pH 3, 37 C): < 10 µg/mL
- solubility ([3]; aqueous buffer, pH 4, 37 C): < 10 µg/mL
- solubility ([3]; aqueous buffer, pH 5, 37 C): < 10 µg/mL
- solubility ([3]; aqueous buffer, pH 7.5, 37 C): 167 µg/mL (≈ 447 µM)
- solubility ([3]; simulated gastric fluid, pH 1, 37 C): < 10 µg/mL
- solubility ([3]; simulated gastric fluid, pH 2, 37 C): < 10 µg/mL
- solubility ([3]; water, 37 C): 20 µg/mL (≈ 53.6 µM)
- GI adverse event rate [4]: 36.4%
- GI symptoms (diarrhea/loose stools, flatulence, and nausea) [5, 8]: 18%
- Headache and dizziness, one patient each [5, 8]: 2%
- Effect on the QT interval ([5]; healthy volunteers, doses up to 40 mg/kg): no effect
- Cmax ([6]; read-out: Cmax (average)): 256 µM
- Cmax ([6]; read-out: Cmax (range)): 134 to 472 µM
- Change in exposure after a high-fat breakfast [7]: nearly doubled
